Assays:
[1] = SERS detection and time profile of PAHs/PAC in murine tissue extracts; format: in vivo, mice (C57BL6J)
[2] = GC-MS/MS quantification of B[a]P, PYR and TQE in tissues; format: in vivo, mice (C57BL6J)
[3] = 24, 48, 72 h post-injection, t(1) < 12.71, p > 0.05 as printed

SMILES | Detection in liver and kidney tissues using SERS and SEIRA ([1]; mouse, in vivo) | Statistical significance of GC-MS/MS tissue concentrations ([2]; female, C57BL6J, mouse, in vivo) | Detection in liver and kidney tissues using SERS and SEIRA ([1]; mice exposed to individual PAHs or PACs, Figs. S3 and S4) | Statistical significance of GC-MS/MS tissue concentrations [2, 3] | Tissue accumulation relative to the other analyzed compounds ([2]; IP mixture, brain, kidney, liver, lung, 24-72 h post-exposure)
c1ccc2c(c1)cc1ccc3cccc4ccc2c1c34 [B[a]P, benzo(a)pyrene] | successful detection | statistically significant except in lung at 72 hours post-injection | – | – | –
c1cc2ccc3cccc4ccc(c1)c2c34 [PYR, pyrene] | – | – | successful detection | statistically significant across all tissues and time points | –
O=C1c2ccccc2C(=O)c2cc3ccccc3cc21 [TQE, 5,12-Naphthacenequinone] | successful detection | – | – | statistically significant across all tissues and time points | lowest accumulation
